Laboratory results as given in US6676932B2, “Ultraviolet absorbent, photostabilizer, ultraviolet ray-absorbing composition, photostabilized composition and external preparation for skin” (Shiseido Co., Ltd., priority 2001, dated 2004).

What was measured:
[1] = tested on: sunburn; test: Ultraviolet preventive effect, application test on beach in summer (Test Example 2); assay type: in vivo, human
Procedure: An application test was carried out on beach in summer. Equal volumes of samples were individually coated on back halves of subjects. After exposure to direct daylight, the degree of sunburn was assessed according to the following assessment standards. Each group consists of 10 subjects.
Prominently effective: none or almost no sunburn symptom was observed.
Effective: light sunburn symptom was observed.
Ineffective: strong sunburn symptom was observed.
⊚: prominently effective or effective for 80% or more of the subjects.
◯: prominently effective or effective for 50% or more to less than 80% of the subjects.
Δ: prominently effective or effective for 30% or more to less than 50% of the subjects.
x: prominently effective or effective for less than 30% of the subjects.
The aqueous phase and the alcohol phase were separately prepared and then mixed together.
Propylene glycol was added to and dissolved in ion exchange water. The resulting solution was retained at 70° C. under heating (aqueous phase). Other ingredients were mixed […]. The resulting mixture was melted under heating and retained at 70° C. (oil phase). The oil phase was added to the aqueous phase, for preliminary emulsification with a homomixer to homogeneity. Under thorough mixing, subsequently, the mixture was cooled to 30° C.

[2] = tested on: skin; test: Test of skin irritation: 24-hour occlusion patch test (Test Example 3 ii); assay type: in vivo, human; conditions: 10 wt % ultraviolet absorbent
Procedure: The same samples as in the Test Example 2 were used (at a 10 wt % amount of an ultraviolet absorbent).
20 Healthy male and female volunteers per one group were carried out in a 24-hour occlusion patch test, using a fin chamber on forearm curves. Assessment was done on the basis of the following assessment standards.
Mean score was determined for the assessment on the basis of the following standards.
◯: mean score of more than 0 to less than 1.
Δ: mean score of 1 or more to less than 2.
x: mean score of 2 or more.

[3] = Photostability test of aqueous solutions under daylight (Test Example 4); assay type: physicochemical; conditions: aqueous solution, daylight for 2 weeks (80 MJ)
Procedure: Aqueous solutions of the pyridazine derivative of the invention were exposed to daylight for 2 weeks (at a daylight exposure of 80 MJ). Subsequently, the remaining ratio and the change of the appearance were examined to measure the ultraviolet spectra with a spectrophotometer (solvent: water; concentration of 10 ppm and optical path length of 1 cm). The area under ultraviolet spectra curve from 290 nm to 400 nm were determined by integration to compare the area with the area before daylight exposure.
The remaining ratio and the change of the area under the ultraviolet spectrum were determined on the basis of the following standards.
⊚: 95% or more of those before daylight exposure.
◯: 90% or more to less than 95% of those before daylight exposure.
Δ: 70% or more to less than 90% of those before daylight exposure.
x: less than 70% of those before daylight exposure.

[4] = Stability test in combination with inorganic powder-based ultraviolet shielding agent, sunscreen cream (Test Example 5); assay type: physicochemical; conditions: sunscreen cream with inorganic powders; ultraviolet absorbent 10.0 wt %; 50° C. for 2 months; visual observation
Procedure: A sunscreen cream of the following formulation was prepared and stored at 50° C. for 2 months. Under visual observation of the color change, the stability of the inventive pyridazine derivative in combination with inorganic powder-based ultraviolet screening agents commonly in blend as external preparations for skin for the purpose of ultraviolet prevention was examined.
After the ingredient 2 was added to the ingredient 1 to swell the ingredient 2, the ingredients 3 to 11 were mixed with the resulting mixture under heating, for sufficient dispersion and dissolution. While keeping the dispersion at 70° C., a solution of the mixture of the ingredients 12 to 15 was gradually added to the dispersion under thorough emulsification with a homomixer. The resulting mixture was cooled to 30° C. under sufficient stirring to prepare sunscreen creams.

[5] = Stabilization effect on perfume under daylight exposure (Test Examples 92 to 181); assay type: physicochemical; parameters: key: ◯: no change; Δ: almost no change; x: change; conditions: daylight exposure (80 MJ)
Procedure: Each test sample was prepared for observation of the change of the odor of the test sample (determined by perfume coordinator) before and after daylight exposure (80 MJ).

[6] = Drug stabilization effect under daylight exposure (Test Examples 182 to 211); assay type: physicochemical; parameters: key to Appearance (visual determination): ◯: no change; Δ: almost no change; x: change; conditions: photostabilizer 0.05 wt %, daylight exposure (80 MJ); for Remaining ratio (%): liquid chromatography
Procedure: For observation of the change of the appearance of each test sample (determination based on visual observation) and the measurement of the remaining ratio by liquid chromatography before and after daylight exposure (80 MJ), the test sample was prepared.

[7] = Dye stabilization effect in blend with sequestering agents (Test Examples 212 to 275); assay type: physicochemical; conditions: dye Red 227 (Acid Fuchsine D) 0.0001, photostabilizer 0.01, daylight exposure (80 MJ)
Summary of the method: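 Colour difference (ΔE) measured by spectrophotometer in Lab coordinates before and after daylight exposure (80 MJ), relative to pre-exposure values (L1, a1, b1); appearance change also assessed visually.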

[8] = Drug stabilization effect blended with sequestering agent (Test Examples 372 to 391); assay type: physicochemical; parameters: key to Appearance (visual determination): ◯: no change; Δ: almost no change; x: change; conditions: drug Salicylic acid 0.1, photostabilizer blend amount 0.03, daylight exposure (80 MJ)
Summary of the method: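 Compositions combining the pyridazine derivative with sequestering agents were exposed to daylight (80 MJ). Appearance was judged visually, and drug remaining ratio was measured by liquid chromatography before and after exposure.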

[9] = drug L-ascorbic acid 2-glucoside 2.0 wt %
[10] = drug dibutylhydroxytoluene 0.01 wt %
[11] = drug dl-α-tocopherol 2-L-ascorbic acid phosphate diester potassium salt 0.01 wt %

For `Oc1nncc(N2CCCCC2)c1N1CCCCC1` [4,5-Dipiperidino-3-hydroxypyridazine], the Ultraviolet prevention effect ([1]; cream, blend amount 0.0005 wt %) was “Δ (prominently effective or effective for 30% or more to less than 50% of the subjects)”, the Ultraviolet prevention effect ([1]; cream, blend amount 0.001 wt %) was “◯ (prominently effective or effective for 50% or more to less than 80% of the subjects)” and the Ultraviolet prevention effect ([1]; cream, blend amount 0.01 wt %) was “⊚ (prominently effective or effective for 80% or more of the subjects)”. For the same molecule, the Ultraviolet prevention effect ([1]; cream, blend amount 1 wt %) was “⊚ (prominently effective or effective for 80% or more of the subjects)”, the Ultraviolet prevention effect ([1]; cream, blend amount 5 wt %) was “⊚ (prominently effective or effective for 80% or more of the subjects)” and the Ultraviolet prevention effect ([1]; cream, blend amount 10 wt %) was “⊚ (prominently effective or effective for 80% or more of the subjects)”. The Ultraviolet prevention effect ([1]; cream, blend amount 20 wt %) was “⊚ (prominently effective or effective for 80% or more of the subjects)”, the Ultraviolet prevention effect ([1]; lotion, blend amount 0.0005 wt %) was “Δ (prominently effective or effective for 30% or more to less than 50% of the subjects)” and the Ultraviolet prevention effect ([1]; lotion, blend amount 0.001 wt %) was “◯ (prominently effective or effective for 50% or more to less than 80% of the subjects)”. For the same molecule, the Ultraviolet prevention effect ([1]; lotion, blend amount 0.01 wt %) was “⊚ (prominently effective or effective for 80% or more of the subjects)”, the Ultraviolet prevention effect ([1]; lotion, blend amount 1 wt %) was “⊚ (prominently effective or effective for 80% or more of the subjects)” and the Ultraviolet prevention effect ([1]; lotion, blend amount 5 wt %) was “⊚ (prominently effective or effective for 80% or more of the subjects)”. The Ultraviolet prevention effect ([1]; lotion, blend amount 10 wt %) was “⊚ (prominently effective or effective for 80% or more of the subjects)”, the Ultraviolet prevention effect ([1]; lotion, blend amount 20 wt %) was “⊚ (prominently effective or effective for 80% or more of the subjects)” and the “Determination (skin reaction, patch test)” value ([2]; cream) was “⊚ (mean score of 0)”. The “Determination (skin reaction, patch test)” value ([2]; lotion) was “⊚ (mean score of 0)”, the Remaining ratio [3] was “⊚ (95% or more of those before daylight exposure)” and the “Change of area under ultraviolet spectrum” value ([3]; 290 nm to 400 nm) was “⊚ (95% or more of those before daylight exposure)”. The Color change [4] was “no”, the odor determination ([5]; base perfume Rose, photostabilizer 0.05 wt %) was “◯” and the odor determination ([5]; base perfume Spicy, photostabilizer 0.2 wt %) was “◯”. For the same molecule, the odor determination ([5]; base perfume Woody, photostabilizer 0.1 wt %) was “◯”, the odor determination ([5]; natural perfume Lavender oil, photostabilizer 0.1 wt %) was “◯” and the odor determination ([5]; natural perfume Rose oil, photostabilizer 0.05 wt %) was “◯”. For the same molecule, the odor determination ([5]; natural perfume Ylang ylang oil, photostabilizer 0.2 wt %) was “◯”, the odor determination ([5]; synthetic perfume Citral, photostabilizer 0.1 wt %) was “◯” and the odor determination ([5]; synthetic perfume Linalool, photostabilizer 0.05 wt %) was “◯”. For the same molecule, the odor determination ([5]; synthetic perfume Linalyl acetate, photostabilizer 0.1 wt %) was “◯”, the “Appearance (visual determination)” value [6, 9] was “◯” and the “Remaining ratio (%)” value [6, 9] was 99.3%. For the same molecule, the “Appearance (visual determination)” value [6, 10] was “◯”, the “Remaining ratio (%)” value [6, 10] was 99.0% and the “Appearance (visual determination)” value [6, 11] was “◯”. For the same molecule, the “Remaining ratio (%)” value [6, 11] was 99.1%, the “Appearance (visual determination)” value ([6]; drug salicylic acid 0.1 wt %) was “◯” and the “Remaining ratio (%)” value ([6]; drug salicylic acid 0.1 wt %) was 99.6%. For the same molecule, the “Δ E” value ([7]; no sequestering agent) was 0.98, the “Δ E” value ([7]; with ethylenediaminehydroxyethyl trisodium triacetate 0.02) was 0.52 and the “Δ E” value ([7]; with ethylenediaminetetraacetate trisodium 0.02) was 0.72. For the same molecule, the “Δ E” value ([7]; with sodium metaphosphate 0.02) was 0.61, the “Appearance (visual determination)” value ([8]; no sequestering agent) was “Δ” and the “Appearance (visual determination)” value ([8]; with ethylenediamine tetraacetate trisodium 0.03) was “◯”.
